The values below come from publication PMC9743095 (Journal of Medicinal Chemistry, 2022).

Assay [1] concerns SW620. Description: cells. In kind it is cell-based. How it is done: (§1) The assay was contracted and carried out by WuXi AppTec (Shanghai) Co., Ltd. The tumor cell lines CCRF-CEM, HL-60, KG-1, MOLT-4, K562, MV4-11, THP-1, HEL92.1.7, NCI-H929, RPMI-8226, Jurkat, Z138, RL, HS445, HepG2, MCF-7, Bx-PC-3, HT29, MIA PaCa-2, and SW620 were seeded at cell densities of […] 10^3 cells/well in a 96-well plate the day before drug incubation. Then, the plates were incubated for 72 h with the different concentrations of compound to be tested. After the incubation period, 50 μL of MTS was added and the tumor cells were incubated for 4 h at 37 °C. The data were read and collected by a Spectra Max 340 absorbance microplate reader. The compounds were tested in duplicate with nine serial concentrations (3.16-fold titrations with 198 μM as the highest concentration), and the data were analyzed by XLfit software.

In assay [2] the test system is Z138. Description: cells. In kind it is cell-based. How it is done: as §1
For assay [3], the system named is K562. In words: cells. In kind it is cell-based. The conditions noted are these: Homo sapiens. How it is done: as §1
The subject of assay [4] is NCI-H929. Description: cells. The format is cell-based. On the procedure:
as §1

In assay [5] the test system is HS445. Description: cells. In kind it is cell-based. How it is done: as §1
The test system of assay [6] is MV4-11. Description: cells. The format is cell-based. On the procedure: as §1
In assay [7] the test system is HL-60. Description: cells. The format is cell-based. The conditions noted are these: Homo sapiens. On the procedure: as §1
Assay [8] relates to HepG2. In words: cells. The settings on record: Homo sapiens, 72 h; HepG2, maximum inhibitory effect over concentration range; read-out: MI%. The format is cell-based. How it is done:
as §1

In assay [9] the test system is BxPC-3. Description: cells. The format is cell-based. How it is done:
as §1

Assay [10] has as its system RL. In words: cells. The format is cell-based. How it is done: as §1
In assay [11] the test system is MOLT-4. In words: cells. The settings on record: Homo sapiens. The format is cell-based. On the procedure:
as §1

Assay [12] relates to Jurkat. Description: cells. The settings on record: Jurkat. In kind it is cell-based. How it is done:
as §1

Assay [13] has as its system MIA PaCa-2. In words: cells. In kind it is cell-based. How it is done: as §1
In assay [14] the test system is MCF-7. In words: cells. In kind it is cell-based. The settings on record: Homo sapiens, MCF7, 72 h. How it is done: as §1
The subject of assay [15] is KG-1. Description: cells. In kind it is cell-based. The settings on record: Homo sapiens, KG-1, 72 h, read-out: LC50. How it is done:
as §1

The subject of assay [16] is HT29. Description: cells. The format is cell-based. On the procedure:
as §1

Assay [17] relates to RPMI-8226. Description: cells. The format is cell-based. How it is done: as §1
In assay [18] the test system is CCRF-CEM. Description: cells. The format is cell-based. The settings on record: Homo sapiens, 72 h. How it is done:
as §1

The subject of assay [19] is THP-1. Description: cells. The format is cell-based. How it is done: as §1
The test system of assay [20] is HEL92.1.7. In words: cells. In kind it is cell-based. On the procedure: as §1
The conditions of assay [21]: cited from earlier work.
Where [22] appears, read: Homo sapiens, 72 h, read-out: LC50.
[23] abbreviates: maximum inhibitory effect over concentration range.

Structures are written as SMILES.

Take `CC(=O)O[C@H]1C(=O)[C@@]2(C)[C@H]([C@H](OC(=O)c3ccccc3)[C@]3(O)C[C@H](OC(=O)[C@H](O)[C@@H](NC(=O)c4ccccc4)c4ccccc4)C(C)=C1C3(C)C)[C@]1(OC(C)=O)CO[C@@H]1C[C@@H]2O` [PTX, paclitaxel, reference compound]: the CC50 was 20 nM in assay [1] (Homo sapiens, SW-620, 72 h, read-out: LC50); 2 nM in [2] (Homo sapiens, Z-138, 72 h, read-out: LC50); 8 nM in assay [3] (K562, 72 h, read-out: LC50); 3 nM in [4] (Homo sapiens, NCI-H929, 72 h, read-out: LC50); 10 nM in assay [5] (Homo sapiens, Hs 445, 72 h, read-out: LC50); 10 nM in assay [6] (Homo sapiens, MV4-11, 72 h, read-out: LC50). Also, the CC50 in assay [7] (HL-60, 72 h, read-out: LC50) was 4 nM; in assay [9] (Homo sapiens, BXPC-3, 72 h, read-out: LC50) it was more than 500 nM; in [10] (setting [22]), 3 nM; in assay [11] (MOLT-4, 72 h, read-out: LC50) it was 2 nM; in assay [12] (setting [22]) it was 5 nM; in assay [13] (Homo sapiens, MIA PaCa-2, 72 h, read-out: LC50), 2 nM. The CC50 in assay [14] (read-out: LC50) is 3 nM; in assay [15], 70 nM; in assay [16] (Homo sapiens, HT-29, 72 h, read-out: lC50), 4 nM; in assay [17] (Homo sapiens, RPMI-8226, 72 h, read-out: LC50) it was 3 nM; in [18] (read-out: LC50), 3 nM; in assay [19] (Homo sapiens, THP-1, 72 h, read-out: LC50), 30 nM. For the same compound, in assay [20] (Homo sapiens, HEL 92.1.7, 72 h, read-out: LC50), the CC50 was determined as 20 nM. Moreover, the MI% in assay [1] (SW620, maximum inhibitory effect over concentration range) amounted to 96%; in assay [2] (Z138, maximum inhibitory effect over concentration range) it was 99%; in assay [4] (NCI-H929, maximum inhibitory effect over concentration range), 82%; in assay [5] (HS445, maximum inhibitory effect over concentration range) it was 74%; in assay [6] (MV4-11, maximum inhibitory effect over concentration range), 99%; in [9] (BxPC-3, maximum inhibitory effect over concentration range), 42%. Further, the MI% in assay [10] (setting [23]) amounted to 83%; in assay [12] (setting [23]) it was 97%; in [13] (MIA PaCa-2, maximum inhibitory effect over concentration range), 87%; in assay [16] (HT29, maximum inhibitory effect over concentration range), 75%; in assay [17] (RPMI-8226, maximum inhibitory effect over concentration range), 91%; in assay [19] (THP-1, maximum inhibitory effect over concentration range) it was 72%. In [20] (HEL92.1.7, maximum inhibitory effect over concentration range), this compound displayed an MI% of 83%. Moreover, the Emax in assay [3] (72 h, K562, maximum inhibitory effect over concentration range, read-out: MI%) amounted to 94%; in assay [7] (72 h, HL-60, maximum inhibitory effect over concentration range, read-out: MI%), 96%; in assay [8], 54%; in assay [11] (72 h, MOLT-4, maximum inhibitory effect over concentration range, read-out: MI%) it was 97%; in assay [14] (MCF-7, maximum inhibitory effect over concentration range, read-out: MI%), 79%; in assay [18] (maximum inhibitory effect over concentration range, read-out: MI%) it was 95%.

`CC(C)OC(=O)[C@H](C)N[P@](=O)(CO[C@H](C)Cn1cnc2c(N)ncnc21)Oc1ccccc1` [TAF, Tenofovir Alafenamide]: in [21], the “Sp isomer fold more active than the Rp isomer” value is recorded as 10 fold.

With `CC(C)OC(=O)[C@H](C)N[P@](=O)(OC[C@H]1O[C@@H](n2ccc(=O)[nH]c2=O)[C@](C)(F)[C@@H]1O)Oc1ccccc1` [sofosbuvir], in assay [21], the “Sp isomer fold more active than the Rp isomer” value was 18 fold.
